Data taken from patent US20220305003A1, “METHODS OF TREATING CANCER WITH AN INHIBITOR OF ZNF827” (CHILDREN'S MEDICAL RESEARCH INSTITUTE, priority 2019, published 2022).

Columns and labels:
Assay type in all cases: cell-based
HT1080 cells [1] = assay: RPA foci by immunofluorescence in HT1080 cells
Experimental: Topotecan and aphidicolin were used in this study. For experiments where they were used to cause replication stress and DNA damage, cells were treated with topotecan 2 μg/mL for either 1 hour or 24 hours, or aphidicolin 1 μM for 20 hours. For replication fork stalling induction in the PCNA colocalisation experiments, cells were treated with aphidicolin 0.4 μM for 6-8 hours. Topotecan and aphidicolin were dissolved in DMSO. DMSO was used as a control.
Cells were transfected using Lipofectamine RNAiMAX transfection reagent (ThermoFisher Scientific) with an siRNA concentration of […]. For transfection in a 75 cm^2flask, 3 mL reduced serum medium Opti-MEM (Gibco) was combined with 15 μL of 20 μM siRNA, mixed gently to cover the surface area of the flask and incubated at room temperature for 5 minutes. 30 μL of Lipofectamine RNAiMAX transfection reagent was then added to the mixture, and mixed and incubated for a further 15 minutes at room temperature. Meanwhile, cells to be transfected were trypsinised, resuspended in DMEM supplemented with 10% FCS, and counted using a Beckman Coulter cell counter. 0.8-1×10^6 cells in DMEM supplemented with 10% FCS were directly pipetted onto the transfection mixture in the flask, and shaken gently to mix. Additional DMEM supplemented with 10% FCS was added to the flask up to a total volume of 15 mL. Cells were harvested 72 hours post-transfection for knockdown validation and subsequent experiments.
Cells cultured on coverslips were fixed in 2% paraformaldehyde in PBS at room temperature for 10 minutes. Cells fixed on coverslips were rinsed with deionised water, and then permeabilised using KCM buffer (120 mM potassium chloride, 20 mM NaCl, 10 mM Tris, pH 7.5, 0.1% Triton X-100) at room temperature for 10 minutes. Coverslips were blocked with antibody diluent buffer (ABDIL—20 mM Tris-Cl, pH 7.5, 2% BSA, 0.2% fish gelatine, 150 mM NaCl, 0.1% Triton X-100, 0.1% sodium azide) containing 100 μg/mL RNase A at room temperature for one hour. […] Quantitated analysis was conducted by automation with CellProfiler (Broad Institute).

HT1080 cells [2] = assay: Cell cycle analysis by flow cytometry (propidium iodide)
Experimental: For cell cycle analysis, cells were trypsinised, counted and collected by centrifugation at 1000 rpm for 5 minutes. 1×10^6 cells were resuspended in 0.5 mL PBS, then fixed in 5 mL of ice-cold 70% ethanol drop by drop whilst being gently vortexed. The cells were incubated on ice for 30 minutes then stored at −20° C. for 2-7 days until propidium iodide staining. Prior to propidium iodide (Sigma) staining, the ethanol fixed cells were centrifuged at 300×g for 6 minutes to remove ethanol, washed once with PBS, and resuspended in 0.5 mL PBS per 1×10^6 cells. The fixed cells were treated with 0.5 mg of RNase (Sigma) and 25 μg of propidium iodide at 37° C. for 30 minutes, and then allowed to return to room temperature in the dark for 10 minutes. Labelled cells were analysed using the BD FACSCanto Flow Cytometer (BD Biosciences) containing a blue air cooled 488 nm argon laser to excite propidium iodide. Between 10 000-15 000 events were collected at an approximate flow rate of 200 events/second. The forward scatter (FSC, size) and side scatter (SSC, internal granularity) of each cell was recorded. To discriminate and eliminate cell debris and doublets, the pulse area (FL2-A) was plotted against the pulse width (FL2-W). Doublets identified as cells with 4N DNA content and increasing pulse width were eliminated. A histogram displaying the cell counts against the FL2-A was used to calculate the percentage of cells in each cell cycle phase, as well as the percentage of non-viable cells. Data analysis was conducted using BD FACS Diva software (BD Bioscience).

HT1080 cells [3] = assay: Sister chromatid exchange (SCE) assay in HT1080; settings: 72 hr siRNA knockdown of ZNF827, topotecan 2 μg/mL 1 hr
Experimental: For the SCE assay, 20-25% confluent cells were cultured in fresh media supplemented with 7.5 μM […] (BrdU) and 2.5 μM BrdC (BrdU:BrdC 3:1 ratio; Sigma-Aldrich) for 32-48 hours depending on the mitotic index of the cell line. Cell cultures were treated with 100 ng/mL colcemid for the last 4 hours of incubation to accumulate mitotic cells. Cells were harvested by trypsinisation and centrifugation, and then incubated in hypotonic buffer for 10 minutes at 37° C. Swollen cells were fixed by gradually adding 1 mL of fresh ice-cold fixative (methanol/acetic acid 3:1), mixing by inversion and incubating on ice for 5 minutes. Cells were then collected by centrifugation at 1200 rpm for 8 minutes. 10 mL ice cold fixative was added to resuspend the cells followed by 5 minutes incubation on ice and centrifugation at 1200 rpm for 8 minutes. This fixing step was repeated another two times. Fixed cells were then resuspended in 500-1000 μL of ice-cold fixative, and dropped onto clean, dry microscope slides (HDS Surefrost, 50-100 μL cell solution per slide). To drop chromosomes, a clean dry slide was held over a 75° C. water bath, and the cell solution was dropped from a pipette onto the slide, which was quickly flipped and held close to the surface of the water bath for 5 seconds. […]

[4] = agent alone (topotecan 2 μg/mL 24 hr, or 72 hr siRNA knockdown in unchallenged cells)
[5] = agent alone (topotecan 2 μg/mL 1 hr, or 72 hr siRNA knockdown in unchallenged cells)

Compound	total nuclear RPA foci (HT1080 cells [1]; [4])	cell cycle profile (HT1080 cells [2]; [5])	total nuclear RPA foci (HT1080 cells [1]; 72 hr siRNA knockdown of ZNF827 in topotecan-treated cells (2 μg/mL, 24 hr))	sister chromatid exchanges (SCEs) (HT1080 cells [3])	cell cycle profile (HT1080 cells [2]; 72 hr siRNA knockdown in conjunction with topotecan 2 μg/mL 1 hr)
CC[C@@]1(O)C(=O)OCc2c1cc1n(c2=O)Cc2cc3c(CN(C)C)c(O)ccc3nc2-1 [topotecan]	RPA foci only became visible upon topotecan treatment	distinct G2/M arrest	–	–	–
siZNF827: Stealth RNAi siRNA ZNF827HSS135819 duplex oligoribonucleotides (Invitrogen), SEQ ID NO: 12 and 13 (chain 1 GGGCAGUCUUCUGGCUGAGAAAUCA; chain 2 UGAUUUCUCAGCCAGAAGACUGCCC; listed as RNA, further chemistry not given here)	did not change the total number of nuclear RPA foci	subtle increase in S phase cells accompanied by a reduction in G2/M cells	significantly greater increase in overall nuclear RPA foci	suppression of SCEs	conspicuous G1 arrest while reducing the G2/M arrest
